One series has as its target T1, DPP-IV (Homo sapiens, UniProt P27487).
T1 construct: endogenous in cells; host or cells: Caco-2 (human colon carcinoma), differentiated; NP-40 lysate, 35000 g supernatant
Kind of series: Determination of DPP-IV inhibitory activity and IC50 (enzyme from Caco-2 cell lysate, absorbance at 405 nm). In kind it is biochemical. The following applies: for inhibition at 0.1 µM: Concentration 100 nM; for inhibition at 0.3 µM: Concentration 300 nM. The procedure:
Cultivation of human colon carcinoma cell-line cells (Caco-2): Caco-2 cells were cultivated in a culture medium of DMEM (high glucose, containing 10% fetal bovine serum, 1% NAA), and the cell lines were passaged in a proportion of 1:1 or 1:2; after nearly reaching confluence, the cells were further cultivated for 2-3 weeks, while changing the medium once every 2-3 days.
Preparation of DPP-IV: the cells were washed with a pre-cooled PBS for 2-3 times, and 0.5-1 ml ice-cold 10 mM Tris-HCl (containing 0.15 M NaCl, 0.04 t.i.u aprotinin, 0.5% nonionic detergent P40, pH 8) was added to each culture bottle to lysate the cells, followed by collecting them in a centrifuge tube. After centrifugation at 4° C., 35000 g for […], the obtained supernatant was collected, and subjected to a protein content detection, and then stored in a low temperature refrigerator.
The test groups included enzyme control group, substrate control group, enzyme reaction control group, and compound group, and the test was carried out in a 96-pore plate, using 150 μL reaction system. In the 96-pore plate, a diluted test compound was added in the compound group, 30 μL/pore; 20 μL DPP-IV solution was added in the enzyme control group, as well as in the compound group; an analytic buffer (25 mM Tris-HCl pH 7.4, containing 140 mM NaCl, 10 mM KCl, 1% bovine serum albumin) was added in 130 μL to the enzyme control group, in 125 μL to the substrate control group, in 105 μL to the enzyme reaction control group, and in 75 μL to the compound group; and then 25 μL substrate (1 mM) was added, followed by reacting at room temperature for 10 min. No substrate was added in the enzyme control group. After reacting for 10 min, 25% glacial acetic acid was added in 19 μL/pore to terminate the reaction. The absorbance was determined by using an enzyme calibrating apparatus at a wavelength of 405 nm.

The next series relates to obese mouse. The following applies: 10 mg/kg, 2 times/d, long-term treatment; cited from earlier work.
Series [1] has as its system streptozotocin-induced DM male mouse. Conditions: 2 times/d, after 7 weeks; cited from earlier work.
For series [2] the following is noted: pig, in vivo, cited from earlier work.

The source of these data is US8173643B2, “N-substituted thiomorpholine derivatives as the inhibitors of dipeptidyl peptidase IV and the pharmaceutical uses thereof” (Beijing Molecule Science and Technology Co., Ltd., priority 2007, dated 2012).

Counter-ions that a name gives are not always drawn.

A word on the IC50: it is the concentration that gives 50% inhibition.

T1 sequence (P27487 whole entry): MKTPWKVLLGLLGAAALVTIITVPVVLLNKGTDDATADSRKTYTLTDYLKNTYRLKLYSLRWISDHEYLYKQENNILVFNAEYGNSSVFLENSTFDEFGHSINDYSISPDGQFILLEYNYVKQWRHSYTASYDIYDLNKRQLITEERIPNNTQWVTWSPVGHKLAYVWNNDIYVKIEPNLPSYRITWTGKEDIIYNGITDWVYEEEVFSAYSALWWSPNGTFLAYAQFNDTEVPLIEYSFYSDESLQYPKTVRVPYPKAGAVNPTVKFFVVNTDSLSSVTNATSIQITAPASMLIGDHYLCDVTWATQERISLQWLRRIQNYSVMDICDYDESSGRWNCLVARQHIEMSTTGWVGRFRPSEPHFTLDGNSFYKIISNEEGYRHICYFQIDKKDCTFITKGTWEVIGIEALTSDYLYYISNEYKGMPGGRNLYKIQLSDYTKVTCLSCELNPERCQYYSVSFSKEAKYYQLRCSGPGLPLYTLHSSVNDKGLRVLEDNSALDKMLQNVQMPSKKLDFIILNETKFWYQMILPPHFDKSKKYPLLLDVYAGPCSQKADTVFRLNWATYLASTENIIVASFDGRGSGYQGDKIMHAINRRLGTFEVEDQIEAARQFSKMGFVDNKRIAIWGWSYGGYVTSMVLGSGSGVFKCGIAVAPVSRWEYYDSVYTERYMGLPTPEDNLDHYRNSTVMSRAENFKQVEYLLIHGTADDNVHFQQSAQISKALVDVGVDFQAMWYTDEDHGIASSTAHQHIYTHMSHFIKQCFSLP

As to `CC(C)[C@@H](N)C(=O)N1CCSC[C@H]1C#N` (stereo in doubt) [Compound 1, (R)-3-cyano-4-(2-amino-3-methyl-butyryl)thiomorpholine hydrochloride], on DPP-IV (Concentration 10 nM, read-out: Inhibitory rate(%)), the inhibition at 0.01 µM came to 7.65 ± 0.68%. The inhibition at 0.03 µM on DPP-IV (Concentration 30 nM, read-out: Inhibitory rate(%)) was determined as 13.2 ± 1.92%. For the same molecule, at DPP-IV (read-out: Inhibitory rate(%)), the inhibition at 0.1 µM was found to be 40.3 ± 3.09% and the inhibition at 0.3 µM was 73 ± 1.74%. The inhibition at 1 µM at DPP-IV (Concentration 1000 nM, read-out: Inhibitory rate(%)) was 101 ± 1.36%. At DPP-IV (DPP-IV from Caco-2 cells), this molecule registered a half-inhibitory concentration (IC50) of 189 ± 26.4 nM.

For `CC(C)C[C@@H](N)C(=O)N1CCSC[C@H]1C#N` [Compound 2, (R)-3-cyano-4-(2-amino-4-methyl-pentanoyl)thiomorpholine hydrochloride], on DPP-IV (read-out: Inhibitory rate(%)), the inhibition at 0.1 µM is 24.1 ± 2.41% and the inhibition at 0.3 µM amounted to 47.2 ± 0.64%.

On to `CC(C)(C)[C@H](N)C(=O)N1CCC[C@H]1C#N` [FE 999011], for which the “postponement of the occurrence of hyperglycemia” value in the series with obese mouse was 21 days.

Consider `CC[C@H](C)[C@H](N)C(=O)N1CCSC1` [P32/98], for which, in series [1], the “fraction of islet β cells increased, as compared with the control group” value is 12%; the “number of islets increased, as compared with the control group” value is 35%; the “number of overall β cells increased, as compared with the control group” value is 120%; the plasma insulin level entry is “approaching to normal”.

“GIP: gastric inhibitory peptide, an incretin secreted by K cells, substrate of DPP-IV”: in series [2] (iv), the “immunocompetence of intact GIP shown by radioimmunoassay” value is recorded as 14.5%. For the same molecule, the “immunocompetence of GIP” value in series [2] was 49%.
